# Assay results as given in PubChem BioAssay AID328 (DTP/NCI, 2004).
# Where “and” joins values, the source holds several entries; their conditions need not be identical. Identical values can stand only once. Inconclusive results and toxic doses are left out.
# System: BDF1 mice, P388 leukemia ip, median survival T/C
# Assay: NCI In Vivo Anticancer Drug Screen. Data for tumor model P388 Leukemia (intraperitoneal) in B6D2F1 (BDF1) mice
# Settings: endpoint: median survival time, higher = longer survival
# Outline: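 Each value expresses how treatment altered survival: treated-mouse outcome over vehicle-mouse outcome, both groups bearing the transplanted tumour.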
# [1] = dose: 100.0 mg/kg/injection, schedule: Q04DX003 (ip), vehicle: saline with Tween-80
# [2] = dose: 200.0 mg/kg/injection, schedule: Q04DX003 (ip), vehicle: saline with Tween-80
# [3] = dose: 400.0 mg/kg/injection, schedule: Q04DX003 (ip), vehicle: saline with Tween-80
# [4] = dose: 100.0 mg/kg/injection, schedule: Q04DX003 (ip), vehicle: saline
smiles,measurement,setting,value
CCOc1nc(S(=O)(=O)CC)ncc1C,T/C,"dose: 25.0 mg/kg/injection, schedule: Q01DX009 (ip), vehicle: saline with Tween-80",92 % of control
same,T/C,"dose: 75.0 mg/kg/injection, schedule: Q01DX009 (ip), vehicle: saline with Tween-80",90 % of control
same,T/C,[1],105 % of control
same,T/C,"dose: 150.0 mg/kg/injection, schedule: Q01DX009 (ip), vehicle: saline with Tween-80",106 % of control
same,T/C,[2],96 % of control
same,T/C,[3],96 % of control
Cc1cc(O)c(O)c(C(C)(C)CC(C)(C)C)c1,T/C,"dose: 100.0 mg/kg/injection, schedule: Q04DX003 (ip), vehicle: saline + alcohol",95 % of control
same,T/C,"dose: 200.0 mg/kg/injection, schedule: Q04DX003 (ip), vehicle: saline + alcohol",104 % of control
same,T/C,"dose: 400.0 mg/kg/injection, schedule: Q04DX003 (ip), vehicle: saline + alcohol",100 % of control
OC(CCl)CN1CC[N+]2(CC1)CC[N+]1(CCN(CC(O)CCl)CC1)CC2 (configuration not stated),T/C,"dose: 11.25 mg/kg/injection, schedule: Q01DX009 (ip), vehicle: water",114 % of control
same,T/C,"dose: 27.5 mg/kg/injection, schedule: Q01DX009 (ip), vehicle: water",100 % of control
same,T/C,"dose: 45.0 mg/kg/injection, schedule: Q01DX009 (ip), vehicle: water",115 % of control
same,T/C,"dose: 200.0 mg/kg/injection, schedule: Q01DX009 (ip), vehicle: water",153 % of control and 159 % of control
CCN(C(=O)CCl)C(C)(C)C(SSSC(c1ccc(Cl)cc1)C(C)(C)N(CC)C(=O)CCl)c1ccc(Cl)cc1 (configuration not stated),T/C,"dose: 12.5 mg/kg/injection, schedule: Q01DX009 (ip), vehicle: saline",118 % of control
same,T/C,"dose: 16.5 mg/kg/injection, schedule: Q01DX009 (ip), vehicle: saline",116 % of control
same,T/C,"dose: 25.0 mg/kg/injection, schedule: Q01DX009 (ip), vehicle: saline",116 % of control
same,T/C,"dose: 37.5 mg/kg/injection, schedule: Q01DX009 (ip), vehicle: saline",116 % of control
same,T/C,"dose: 50.0 mg/kg/injection, schedule: Q01DX009 (ip), vehicle: saline",118 % of control
O=[N+]([O-])c1ccc(S(=O)(=O)Nc2ccc(-c3ccccc3)cc2)cc1,T/C,"dose: 100.0 mg/kg/injection, schedule: Q04DX003 (ip), vehicle: other",96 % of control
same,T/C,"dose: 200.0 mg/kg/injection, schedule: Q04DX003 (ip), vehicle: other",104 % of control
same,T/C,"dose: 400.0 mg/kg/injection, schedule: Q04DX003 (ip), vehicle: other",100 % of control
Cc1ccc(NC(=O)CC#N)c(C)c1,T/C,[4],109 % of control
same,T/C,"dose: 200.0 mg/kg/injection, schedule: Q04DX003 (ip), vehicle: saline",100 % of control
same,T/C,"dose: 400.0 mg/kg/injection, schedule: Q04DX003 (ip), vehicle: saline",92 % of control
CCCCOP(=O)(N1CC1CC)N1CC1CC (configuration not stated),T/C,"dose: 50.0 mg/kg/injection, schedule: Q04DX003 (ip), vehicle: saline",123 % of control
same,T/C,"dose: 60.0 mg/kg/injection, schedule: Q04DX003 (ip), vehicle: saline",122 % of control
same,T/C,"dose: 85.0 mg/kg/injection, schedule: Q04DX003 (ip), vehicle: saline",122 % of control
same,T/C,[4],150 % of control
same,T/C,"dose: 133.0 mg/kg/injection, schedule: Q04DX003 (ip), vehicle: saline with Tween-80",109 % of control
same,T/C,"dose: 133.0 mg/kg/injection, schedule: Q04DX003 (ip), vehicle: saline",100 % of control
same,T/C,[2],109 % of control
same,T/C,"dose: 300.0 mg/kg/injection, schedule: Q04DX003 (ip), vehicle: saline",176 % of control
NC(=O)NN=C1CCC(c2ccccc2)CC1 (configuration not stated),T/C,"dose: 50.0 mg/kg/injection, schedule: Q01DX009 (ip), vehicle: saline with Tween-80",112 % of control
same,T/C,"dose: 100.0 mg/kg/injection, schedule: Q01DX009 (ip), vehicle: saline with Tween-80",112 % of control
N#CC(/C=C/c1ccccc1)Nc1ccccc1C(N)=O (configuration not stated),T/C,"dose: 25.0 mg/kg/injection, schedule: Q01DX001 (ip), vehicle: saline with Tween-80",109 % of control
same,T/C,"dose: 50.0 mg/kg/injection, schedule: Q01DX001 (ip), vehicle: saline with Tween-80",104 % of control
same,T/C,"dose: 100.0 mg/kg/injection, schedule: Q01DX001 (ip), vehicle: saline with Tween-80",100 % of control
Cc1cc(N(CCOS(C)(=O)=O)CCOS(C)(=O)=O)ccc1C=Nc1ccc(-c2csc(Cc3ccccc3)n2)cc1,T/C,"dose: 8.25 mg/kg/injection, schedule: Q01DX009 (ip), vehicle: Klucel (hydroxypropylcellulose) (HPC)",100 % of control and 211 % of control
same,T/C,"dose: 12.4 mg/kg/injection, schedule: Q01DX009 (ip), vehicle: Klucel (hydroxypropylcellulose) (HPC)",225 % of control
same,T/C,"dose: 12.5 mg/kg/injection, schedule: Q01DX009 (ip), vehicle: Klucel (hydroxypropylcellulose) (HPC)",250 % of control
same,T/C,"dose: 18.7 mg/kg/injection, schedule: Q01DX009 (ip), vehicle: Klucel (hydroxypropylcellulose) (HPC)",155 % of control
same,T/C,"dose: 18.75 mg/kg/injection, schedule: Q01DX009 (ip), vehicle: Klucel (hydroxypropylcellulose) (HPC)",227 % of control and 178 % of control
same,T/C,"dose: 28.13 mg/kg/injection, schedule: Q01DX009 (ip), vehicle: Klucel (hydroxypropylcellulose) (HPC)",99 % of control
C[N+](C)(C)c1ccc2c(c1)CCC/C2=N\N,T/C,"dose: 6.25 mg/kg/injection, schedule: Q04DX003 (ip), vehicle: saline with Tween-80",94 % of control
COc1cccc(CNc2cccc(Cl)c2Cl)c1OC,T/C,[1],100 % of control
same,T/C,[2],104 % of control
same,T/C,[3],100 % of control
